Columns and labels:
Type in all cases: cell-based, human
CD34+ from cytapheresis = test: Amplification of erythroid progenitors from CD34+ HSCs derived from cytapheresis (cell count); conditions: cell count after culture
Experimental: (§1) IMDM (Biochrom), supplemented with transferrin (330 μg/mL), insulin (10 μg/mL), 5% AB serum pool (EFS) and heparin (3 U/mL). From day 0 to day 7, the medium was supplemented with IL-3 (5 ng/mL), SCF (100 ng/mL) and EPO (2 IU/mL). From day 7 until the end of the amplification of erythroblastic progenitors, the medium was supplemented with SCF (100 ng/mL) and EPO (2 IU/mL).
HSCs are obtained after magnetic separation using CD34+ beads according to the protocol provided by Milenyi (see CD34 MicroBead Kit, human, from Miltenyi Biotec).
On day 0 the cells were seeded at a concentration of 10,000 cells/mL, on day 4 the cells were diluted 1/5 in new medium, on day 7 the cells were washed and cultured at 100,000 cells/mL in new medium. On day 11 the cells were diluted to 100,000 cells/mL and seeded in a new medium. On day 14 the cells were reseeded at 300,000 cells/mL in a new medium. On day 18 the cells were diluted to 0.5 million/mL. From day 21 onwards, the cells were systematically returned to 1 million/mL on each maintenance day (i.e., twice per week).
Protocol 1: From day 0 to day 11 the cells are cultured in the basal medium. On day 11 the medium used is supplemented with 253.9 μM DMOG. […]
The cells are diluted to a tenth in trypan blue solution, allowing cell mortality to be assessed if necessary.

CD34+ HTERT BMI1 LMO2 = test: Amplification of erythroid progenitors from engineered cytapheresis HSCs overexpressing HTERT, BMI1 and LMO2 (cell count); conditions: cell count on day 65
Experimental: as §1
(§2) HSCs are obtained from cytapheresis after magnetic separation using Miltenyi CD34+ beads.
(§3) On day 0 the cells were seeded at a concentration of 100,000 cells/mL, for two successive infections with the HTERT BMI1 lentiviral supernatant and the BCL-XL retroviral supernatant or the HTERT BMI1 lentiviral supernatant and the LMO2 lentiviral supernatant; on day 3 the cells were washed 3 times and reseeded at a concentration of 10,000 cells/mL, on day 4 the cells were diluted to 1/5 in new medium. On day 7 the cells were washed and cultured at 100,000 cells/mL in new medium. On day 11 the cells were diluted to 100,000 cells/mL and seeded in a new medium. On day 14 the cells were reseeded to 300,000 cells/mL in a new medium. On day 18 the cells were diluted to 0.5 million/mL. From day 21 onwards, the cells were systematically reset to 1 million/mL each day of maintenance (i.e., twice per week).
(§4) Protocol 1: From day 0 to day 11 the cells are cultured in the basal medium. […]

CD34+ HTERT BMI1 BCL-XL = test: Amplification of erythroid progenitors from engineered cytapheresis HSCs overexpressing HTERT, BMI1 and BCL-XL (cell count); conditions: cell count on day 65
Experimental: as §1, §2, §3, §4

C[C@@H]1C[C@H]2[C@@H]3CCC4=CC(=O)C=C[C@]4(C)[C@@]3(F)[C@@H](O)C[C@]2(C)[C@@]1(O)C(=O)CO [Protocol 3, dexamethasone]
amplification of erythroid progenitors/CD34+ from cytapheresis on day 58 (CD34+ from cytapheresis): 2.47 · 10^7 | amplification of erythroid progenitors/CD34+ (CD34+ HTERT BMI1 LMO2) (CD34+ HTERT BMI1 LMO2): 5.12 · 10^6 | amplification of erythroid progenitors/CD34+ (CD34+ HTERT BMI1 BCL-XL) (CD34+ HTERT BMI1 BCL-XL): 5.76 · 10^5

Reference: US20200370015A1, “METHOD FOR PRODUCING ERYTHROID PROGENITOR CELLS” (ETABLISSEMENT FRANCAIS DU SANG, priority 2017, published 2020)
